The results in this text go back to patent US20260015337A1 (Trawsfynydd Therapeutics, Inc., priority 2022, published 2026).

This assay has as its target 3CL Protease (Severe acute respiratory syndrome coronavirus 2, UniProt P0DTD1). The assay can be described thus: 3CL Protease enzymatic activity assay (BPS Bioscience Assay Kit #78043-1, fluorescence). Type of assay: biochemical, SARS-CoV-2. As for the experimental part: For determination of 3CL Protease enzymatic activity was used Assay Kit of BPS Bioscience, San Diego, CA (Catalog #78043-1).
All samples and controls should be tested in duplicate. • 1) Just before use, dilute 0.5 M DTT 500 times into the 3CL Protease Assay Buffer to obtain a DTT concentration of 1 mM. For example, add 10 μl of 0.5 M DTT to 5 ml of assay buffer. Prepare enough DTT-containing buffer as required for the assay. Store the remaining assay buffer at −20° C. • 2) Thaw the 3CL Protease on ice. Briefly spin the tube containing the enzyme to recover the full content of the tube. Note: 3CL Protease enzyme is sensitive to freeze/thaw cycles. […] Note: The exact concentration and volume of enzyme is lot-specific and will be indicated on the tube. Calculate required dilution from the information in the tube. It may be desirable to dilute the enzyme serially to avoid using large amounts of protease assay buffer for the dilution. • 4) Add 30 μl of diluted 3CL Protease to the wells designated as “Positive Control,” “Inhibitor Control,” and “Test Inhibitor.” Add 30 μl of Assay Buffer (containing 1 mM DTT) to the “Blank” wells. • 5) Dilute the 50 μg GC376 in 200 μl of Assay Buffer to obtain a 500 μM solution. Add 10 μl of GC376 (500 μM) to the wells labeled “Inhibitor Control”. Aliquot and store the remaining solution at −80° C. • 6) Prepare the Test Inhibitor. The final concentration of DMSO in the assay should not exceed 1%. If the Test Inhibitor is dissolved in DMSO, make a 100-fold higher concentration of the compound than the highest desired concentration. Then make a 20-fold dilution in 1× Assay Buffer (containing DTT). At this step the compound concentration is 5-fold higher than the final concentration. If the test inhibitor is dissolved in water, make a 5-fold higher concentration of the test compound than the final desired concentration in the Assay buffer (containing DTT). Add 10 μl of Test Inhibitor to each well designated “Test Inhibitor”. • 7) Diluent Solution (no inhibitor): add 10 μl of assay buffer (if the test compound is water soluble and was diluted in assay buffer) or 10 μl of 5% DMSO diluted in assay buffer (if DMSO was used to dissolve the test inhibitor) to “Blank” and “Positive Control” wells.
• 8) Preincubate for 30 min at room temperature with slow shaking. • 9) Dilute the 25 μl of 3CL Protease substrate (10 mM) in 1.25 ml of the Assay Buffer containing DTT, to make a […] solution. The final concentration of the 3CL Protease substrate in a 50 μl reaction is 40 μM. • 10) Start the reaction by adding 10 μl of the substrate solution to all the wells. Seal the plate with the plate sealer and incubate for 4 hours at room temperature with slow shaking. • 11) Measure the fluorescence intensity in a microtiter plate-reader fluorometer (Tecan Spark Cyto) capable of excitation at a wavelength 360 nm and detection of emission at a wavelength 460 nm. The fluorescence intensity can also be measured kinetically. The “Blank” value is subtracted from all other values. • The % inhibition was then used to calculate the IC50 values.

Setting [1] is: Table A, 30 min preincubation, 40 μM substrate, 4 hours at room temperature, read-out: IC50, nM (3CL Protease enzymatic activity).
Setting [2] is: Table B, comparison with known compound K, read-out: IC50, nM (3CL Protease enzymatic activity, comparative data).

Like-named read-outs stand apart in the source and are kept apart here.

For the molecule `CC(C)(C)[C@H](NC(=O)C(F)(F)F)C(=O)N1C[C@H]2[C@@H]([C@H]1C(=O)NC(C#N)Cc1cc3c([nH]c1=O)CCCC3)C2(C)C` (mixture of isomers) [Compound 121, (1R,2S,5S)—N-(1-Cyano-2-(2-oxo-1,2,5,6,7,8-hexahydroquinolin-3-yl)ethyl)-3-((S)-3,3-dimethyl-2-(2,2,2-trifluoroacetamido)butanoyl)-6,6-dimethyl-3-azabicyclo[3.1.0]hexane-2-carboxamide], under setting [1], the IC50 was 250 to 500 nM.
With `CC(C)(C)[C@H](NC(=O)C(F)(F)F)C(=O)N1C[C@H]2C([C@H]1C(=O)NC(C#N)Cc1ccc[nH]c1=O)C2(C)C` (stereo in doubt) [Compound 101, (1R,2S,5S)—N-(1-Cyano-2-(2-oxo-1,2-dihydropyridin-3-yl)ethyl)-3-((S)-3,3-dimethyl-2-(2,2,2-trifluoroacetamido)butanoyl)-6,6-dimethyl-3-azabicyclo[3.1.0]hexane-2-carboxamide], the IC50 was 100 to 250 nM under setting [1] and 147 nM under setting [2].
On to `Cc1ccc2[nH]c(=O)c(CC(C#N)NC(=O)[C@@H]3C4[C@H](CN3C(=O)[C@@H](NS(C)(=O)=O)C(C)(C)C)C4(C)C)cc2c1` (stereo in doubt) [Compound 102, (1R,2S,5S)—N-(1-Cyano-2-(6-methyl-2-oxo-1,2-dihydroquinolin-3-yl)ethyl)-3-((S)-3,3-dimethyl-2-(methylsulfonamido)butanoyl)-6,6-dimethyl-3-azabicyclo[3.1.0]hexane-2-carboxamide], for which, under setting [1], the IC50 is < 50 nM.
For the molecule `CC(C)(C)[C@H](NC(=O)C(F)(F)F)C(=O)N1C[C@H]2C([C@H]1C(=O)NC(C#N)Cc1cc3cc(Cl)ccc3[nH]c1=O)C2(C)C` (stereo in doubt) [Compound 104, (1R,2S,5S)—N-(2-(6-Chloro-2-oxo-1,2-dihydroquinolin-3-yl)-1-cyanoethyl)-3-((S)-3,3-dimethyl-2-(2,2,2-trifluoroacetamido)butanoyl)-6,6-dimethyl-3-azabicyclo[3.1.0]hexane-2-carboxamide], the IC50 reads like this: under setting [1], 50 to 100 nM; under setting [2], 89 nM.
For `CC(C)(C)[C@H](NC(=O)C(F)(F)F)C(=O)N1C[C@H]2C([C@H]1C(=O)NC(C#N)Cc1cc3ccc(Cl)cc3[nH]c1=O)C2(C)C` (stereo in doubt) [Compound 105, (1R,2S,5S)—N-(2-(7-Chloro-2-oxo-1,2-dihydroquinolin-3-yl)-1-cyanoethyl)-3-((S)-3,3-dimethyl-2-(2,2,2-trifluoroacetamido)butanoyl)-6,6-dimethyl-3-azabicyclo[3.1.0]hexane-2-carboxamide], under setting [1], the concentration for half-maximal inhibition (IC50) lay within 50 to 100 nM.
The same measure, in the same setting: then `CC(C)(C)[C@H](NC(=O)C(F)(F)F)C(=O)N1C[C@H]2C([C@H]1C(=O)NC(C#N)Cc1cc3ccc(F)cc3[nH]c1=O)C2(C)C` (stereo in doubt) [Compound 106, (1R,2S,5S)—N-(1-Cyano-2-(7-fluoro-2-oxo-1,2-dihydroquinolin-3-yl)ethyl)-3-((S)-3,3-dimethyl-2-(2,2,2-trifluoroacetamido)butanoyl)-6,6-dimethyl-3-azabicyclo[3.1.0]hexane-2-carboxamide], with 100 to 250 nM; and `Cc1ccc2[nH]c(=O)c(C[C@@H](C#N)NC(=O)[C@@H]3[C@H]4[C@H](CN3C(=O)[C@@H](NC(=O)C(F)(F)F)C(C)(C)C)C4(C)C)cc2c1` (stereo in doubt) [Compound 107, (1R,2S,5S)—N-(1-Cyano-2-(6-methyl-2-oxo-1,2-dihydroquinolin-3-yl)ethyl)-3-((S)-3,3-dimethyl-2-(2,2,2-trifluoroacetamido)butanoyl)-6,6-dimethyl-3-azabicyclo[3.1.0]hexane-2-carboxamide], with 50 to 100 nM; and `COc1ccc2[nH]c(=O)c(CC(C#N)NC(=O)[C@@H]3C4[C@H](CN3C(=O)[C@@H](NC(=O)C(F)(F)F)C(C)(C)C)C4(C)C)cc2c1` (stereo in doubt) [Compound 109, (1R,2S,5S)—N-(1-Cyano-2-(6-methoxy-2-oxo-1,2-dihydroquinolin-3-yl)ethyl)-3-((S)-3,3-dimethyl-2-(2,2,2-trifluoroacetamido)butanoyl)-6,6-dimethyl-3-azabicyclo[3.1.0]hexane-2-carboxamide], with 250 to 500 nM.
Still for that read-out and setting: then `Cn1cccc(CC(C#N)NC(=O)[C@@H]2C3[C@H](CN2C(=O)[C@@H](NC(=O)C(F)(F)F)C(C)(C)C)C3(C)C)c1=O` (stereo in doubt) [Compound 112, (1R,2S,5S)—N-(1-Cyano-2-(1-methyl-2-oxo-1,2-dihydropyridin-3-yl)ethyl)-3-((S)-3,3-dimethyl-2-(2,2,2-trifluoroacetamido)butanoyl)-6,6-dimethyl-3-azabicyclo[3.1.0]hexane-2-carboxamide], with ≥ 1000 nM.
On to `CC(C)(C)[C@H](NS(C)(=O)=O)C(=O)N1C[C@H]2C([C@H]1C(=O)NC(C#N)Cc1cc3c([nH]c1=O)CCCC3)C2(C)C` (stereo in doubt) [Compound 122, (1R,2S,5S)—N-(1-Cyano-2-(2-oxo-1,2,5,6,7,8-hexahydroquinolin-3-yl)ethyl)-3-((S)-3,3-dimethyl-2-(methylsulfonamido)butanoyl)-6,6-dimethyl-3-azabicyclo[3.1.0]hexane-2-carboxamide], for which the IC50 under setting [1] was in the range of 100 to 250 nM.
In the case of `CC(C)(C)[C@H](NC(=O)C(F)(F)F)C(=O)N1C[C@H]2C([C@H]1C(=O)NC(C#N)Cc1cc3c([nH]c1=O)CCOC3)C2(C)C` (stereo in doubt) [Compound 123, (1R,2S,5S)—N-(1-Cyano-2-(2-oxo-1,5,7,8-tetrahydro-2H-pyrano[4,3-b]pyridine-3-yl)ethyl)-3-((S)-3,3-dimethyl-2-(2,2,2-trifluoroacetamido)butanoyl)-6,6-dimethyl-3-azabicyclo[3.1.0]hexane-2-carboxamide], the IC50 by setting is: under setting [1], 100 to 250 nM; under setting [2], 180 nM.
With `CC(C)(C)[C@H](NS(C)(=O)=O)C(=O)N1C[C@H]2C([C@H]1C(=O)NC(C#N)Cc1cc3c([nH]c1=O)CCOC3)C2(C)C` (stereo in doubt) [Compound 124, (1R,2S,5S)—N-(1-Cyano-2-(2-oxo-1,5,7,8-tetrahydro-2H-pyrano[4,3-b]pyridine-3-yl)ethyl)-3-((S)-3,3-dimethyl-2-(methylsulfonamido)butanoyl)-6,6-dimethyl-3-azabicyclo[3.1.0]hexane-2-carboxamide], under setting [1], the IC50 was in the range of 100 to 250 nM.
On the same count and under the same terms, then `CC(C)(C)[C@H](NC(=O)C(F)(F)F)C(=O)N1C[C@H]2C([C@H]1C(=O)NC(C#N)Cc1cc3c([nH]c1=O)CCC(F)(F)C3)C2(C)C` (stereo in doubt) [Compound 125, (1R,2S,5S)—N-(1-Cyano-2-(6,6-difluoro-2-oxo-1,2,5,6,7,8-hexahydroquinolin-3-yl)ethyl)-3-((S)-3,3-dimethyl-2-(2,2,2-trifluoroacetamido)butanoyl)-6,6-dimethyl-3-azabicyclo[3.1.0]hexane-2-carboxamide], with 250 to 500 nM.
Same read-out and setting: then `CC(C)(C)[C@H](NS(C)(=O)=O)C(=O)N1C[C@H]2C([C@H]1C(=O)NC(C#N)Cc1cc3c([nH]c1=O)CCC(F)(F)C3)C2(C)C` (stereo in doubt) [Compound 126, (1R,2S,5S)—N-(1-Cyano-2-(6,6-difluoro-2-oxo-1,2,5,6,7,8-hexahydroquinolin-3-yl)ethyl)-3-((S)-3,3-dimethyl-2-(methylsulfonamido)butanoyl)-6,6-dimethyl-3-azabicyclo[3.1.0]hexane-2-carboxamide], with 100 to 250 nM.
In the case of `CC1(C)CCc2[nH]c(=O)c(CC(C#N)NC(=O)[C@@H]3C4[C@H](CN3C(=O)[C@@H](NC(=O)C(F)(F)F)C(C)(C)C)C4(C)C)cc2C1` (stereo in doubt) [Compound 127, (1R,2S,5S)—N-(1-Cyano-2-(6,6-dimethyl-2-oxo-1,2,5,6,7,8-hexahydroquinolin-3-yl)ethyl)-3-((S)-3,3-dimethyl-2-(2,2,2-trifluoroacetamido)butanoyl)-6,6-dimethyl-3-azabicyclo[3.1.0]hexane-2-carboxamide], under setting [1], the IC50 lay within 500 to 1000 nM.
